Reference: ChEMBL document CHEMBL1201862, “PubChem BioAssay data set” (2004)
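Briefly, cells in 96-well plates were exposed to five compound concentrations for 48 h, and endpoints were estimated by linear interpolation. Here, GI50 denotes the concentration required for 50% inhibition of growth.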 Active and inactive are the calls of the source. Rule as the data show it: active = GI50 up to about 1.1 µM and inactive = higher.

What was measured:
Experiment in all cases: NCI-60 cell line screen, 48 h
MDA-N = test system: MDA-N
CCRF-CEM = test system: CCRF-CEM
786-0 = test system: 786-0
NCI-H522 = test system: NCI-H522
EKVX = test system: EKVX
IGROV-1 = test system: IGROV-1
SF-295 = test system: SF-295
ACHN = test system: ACHN
K562 = test system: K562
KM12 = test system: KM12
SK-MEL-2 = test system: SK-MEL-2
OVCAR-8 = test system: OVCAR-8
SN12C = test system: SN12C
HL-60 = test system: HL-60
UACC-257 = test system: UACC-257
OVCAR-4 = test system: OVCAR-4
PC-3 = test system: PC-3
TK-10 = test system: TK-10
NCI-H226 = test system: NCI-H226
SK-MEL-28 = test system: SK-MEL-28
HCT-15 = test system: HCT-15
A498 = test system: A498
UO-31 = test system: UO-31
SF-268 = test system: SF-268
NCI-H23 = test system: NCI-H23
HT-29 = test system: HT-29
HOP-62 = test system: HOP-62
DU-145 = test system: DU-145
BT-549 = test system: BT-549
HCT-116 = test system: HCT-116
A549 = test system: A549
RPMI-8226 = test system: RPMI-8226
SNB-19 = test system: SNB-19
M14 = test system: M14
T47D = test system: T47D
NCI/ADR-RES = test system: NCI/ADR-RES
CAKI-1 = test system: CAKI-1
HOP-92 = test system: HOP-92
SF-539 = test system: SF-539
LOX IMVI = test system: LOX IMVI
RXF 393 = test system: RXF 393
NCI-H460 = test system: NCI-H460
U-251 = test system: U-251
OVCAR-3 = test system: OVCAR-3
OVCAR-5 = test system: OVCAR-5
COLO 205 = test system: COLO 205
UACC-62 = test system: UACC-62
SK-OV-3 = test system: SK-OV-3
SK-MEL-5 = test system: SK-MEL-5
MDA-MB-435 = test system: MDA-MB-435
MOLT-4 = test system: MOLT-4
SW-620 = test system: SW-620
MDA-MB-231 = test system: MDA-MB-231
Hs-578T = test system: Hs-578T
MCF7 = test system: MCF7
Malme-3M = test system: Malme-3M
HCC 2998 = test system: HCC 2998
SNB-75 = test system: SNB-75
SR = test system: SR

Cc1ccc(/N=C2/SC(c3ccc(C)cc3)(c3ccc(C)cc3)c3ccccc32)cc1
GI50 (MDA-N): > 100 µM (inactive)
GI50 (CCRF-CEM): > 100 µM (inactive)
GI50 (786-0): > 100 µM (inactive)
GI50 (NCI-H522): > 100 µM (inactive)
GI50 (EKVX): > 100 µM (inactive)
GI50 (IGROV-1): > 100 µM (inactive)
GI50 (SF-295): > 100 µM (inactive)
GI50 (ACHN): > 100 µM (inactive)
GI50 (K562): > 100 µM (inactive)
GI50 (KM12): > 100 µM (inactive)
GI50 (SK-MEL-2): > 100 µM (inactive)
GI50 (OVCAR-8): > 100 µM (inactive)
GI50 (SN12C): > 100 µM (inactive)
GI50 (HL-60): > 100 µM (inactive)
GI50 (UACC-257): > 100 µM (inactive)
GI50 (OVCAR-4): > 100 µM (inactive)
GI50 (PC-3): > 100 µM (inactive)
GI50 (TK-10): > 100 µM (inactive)
GI50 (NCI-H226): > 100 µM (inactive)
GI50 (SK-MEL-28): > 100 µM (inactive)
GI50 (HCT-15): > 100 µM
GI50 (A498): > 100 µM (inactive)
GI50 (UO-31): > 100 µM (inactive)
GI50 (SF-268): > 100 µM (inactive)
GI50 (NCI-H23): > 100 µM (inactive)
GI50 (HT-29): > 100 µM (inactive)
GI50 (HOP-62): > 100 µM (inactive)
GI50 (DU-145): > 100 µM (inactive)
GI50 (BT-549): > 100 µM (inactive)
GI50 (HCT-116): > 100 µM (inactive)
GI50 (A549): > 100 µM (inactive)
GI50 (RPMI-8226): > 100 µM (inactive)
GI50 (SNB-19): > 100 µM (inactive)
GI50 (M14): > 100 µM (inactive)
GI50 (T47D): > 100 µM (inactive)
GI50 (NCI/ADR-RES): > 100 µM (inactive)
GI50 (CAKI-1): > 100 µM (inactive)
GI50 (HOP-92): > 100 µM (inactive)
GI50 (SF-539): > 100 µM (inactive)
GI50 (LOX IMVI): > 100 µM (inactive)
GI50 (RXF 393): > 100 µM (inactive)
GI50 (NCI-H460): > 100 µM (inactive)
GI50 (U-251): > 100 µM (inactive)
GI50 (OVCAR-3): > 100 µM (inactive)
GI50 (OVCAR-5): > 100 µM (inactive)
GI50 (COLO 205): > 100 µM (inactive)
GI50 (UACC-62): > 100 µM (inactive)
GI50 (SK-OV-3): > 100 µM (inactive)
GI50 (SK-MEL-5): > 100 µM (inactive)
GI50 (MDA-MB-435): > 100 µM (inactive)
GI50 (MOLT-4): > 100 µM (inactive)
GI50 (SW-620): > 100 µM (inactive)
GI50 (MDA-MB-231): > 100 µM (inactive)
GI50 (Hs-578T): > 100 µM (inactive)
GI50 (MCF7): > 100 µM (inactive)
GI50 (Malme-3M): > 100 µM (inactive)
GI50 (HCC 2998): > 100 µM (inactive)
GI50 (SNB-75): > 100 µM (inactive)

COc1ccc(N2C(=O)C3c4[nH]c5ccc(F)cc5c4C4CCC(c5ccccc5)CC4C3C2=O)cc1 (centres undefined)
GI50 (MDA-N): 27.4 µM (inactive)
GI50 (CCRF-CEM): 2.26 µM (inactive)
GI50 (786-0): 3.56 µM (inactive)
GI50 (NCI-H522): 13 µM (inactive)
GI50 (EKVX): 24.3 µM (inactive)
GI50 (IGROV-1): 20.1 µM (inactive)
GI50 (SF-295): 31 µM (inactive)
GI50 (ACHN): 20.3 µM (inactive)
GI50 (K562): 3.44 µM (inactive)
GI50 (KM12): 20.7 µM (inactive)
GI50 (SK-MEL-2): 21.8 µM (inactive)
GI50 (SR): 6.93 µM (inactive)
GI50 (OVCAR-8): 17.8 µM (inactive)
GI50 (SN12C): 26.2 µM (inactive)
GI50 (UACC-257): 26.7 µM (inactive)
GI50 (OVCAR-4): 12.7 µM (inactive)
GI50 (PC-3): 14.2 µM (inactive)
GI50 (TK-10): 21.9 µM (inactive)
GI50 (NCI-H226): 54.8 µM (inactive)
GI50 (SK-MEL-28): 13.5 µM (inactive)
GI50 (HCT-15): 19.7 µM
GI50 (A498): 15.7 µM (inactive)
GI50 (UO-31): 21.4 µM (inactive)
GI50 (SF-268): 5.81 µM (inactive)
GI50 (NCI-H23): 18.8 µM (inactive)
GI50 (HT-29): 16 µM (inactive)
GI50 (HOP-62): 14.3 µM (inactive)
GI50 (DU-145): 66.2 µM (inactive)
GI50 (BT-549): 17.3 µM (inactive)
GI50 (HCT-116): 20.7 µM (inactive)
GI50 (A549): 11.6 µM (inactive)
GI50 (RPMI-8226): 32.8 µM (inactive)
GI50 (SNB-19): 11.1 µM (inactive)
GI50 (M14): 12.9 µM (inactive)
GI50 (T47D): 39.3 µM (inactive)
GI50 (NCI/ADR-RES): 45.9 µM (inactive)
GI50 (CAKI-1): 19.8 µM (inactive)
GI50 (HOP-92): 14.5 µM (inactive)
GI50 (LOX IMVI): 36.8 µM (inactive)
GI50 (NCI-H460): 10 µM (inactive)
GI50 (U-251): 9.98 µM (inactive)
GI50 (OVCAR-3): 38.3 µM (inactive)
GI50 (OVCAR-5): 18.3 µM (inactive)
GI50 (COLO 205): 31.1 µM (inactive)
GI50 (UACC-62): 11.9 µM (inactive)
GI50 (SK-OV-3): 22.5 µM (inactive)
GI50 (SK-MEL-5): 21.6 µM (inactive)
GI50 (MDA-MB-435): 16.6 µM (inactive)
GI50 (MOLT-4): 8.18 µM (inactive)
GI50 (SW-620): 8.38 µM (inactive)
GI50 (MDA-MB-231): 15.3 µM (inactive)
GI50 (Hs-578T): 10.8 µM (inactive)
GI50 (MCF7): 18.7 µM (inactive)
GI50 (Malme-3M): 16.1 µM (inactive)
GI50 (HCC 2998): 39.9 µM (inactive)
GI50 (SNB-75): 12.5 µM (inactive)
